Data from ChEMBL document CHEMBL3885881, “DrugMatrix”.

Organism: Rattus norvegicus
Assay: DrugMatrix - Regimen: Daily Repeat
Assay type: toxicity, organism-based, Sprague-Dawley
Set-up: regimen Daily Repeat, gender Male, age 6-8 weeks
Settings: in vivo, po, route oral GAVAGE, vehicle .5 % CMC; for ABSOLUTE BASOPHIL / ABSOLUTE EOSINOPHIL / ABSOLUTE LYMPHOCYTE / ABSOLUTE MONOCYTE / ABSOLUTE SEGMENTED NEUTROPHIL / BASOPHIL / EOSINOPHIL / ERYTHROCYTE COUNT / HEMATOCRIT / HEMOGLOBIN / LEUKOCYTE COUNT / LYMPHOCYTE / MEAN CORPUSCULAR HEMOGLOBIN / MEAN CORPUSCULAR HEMOGLOBIN CONCENTRATION / MONOCYTE / NEUTROPHIL / NUCLEATED RED BLOOD CELLS / PLATELET COUNT: tissue Blood; for ALANINE AMINOTRANSFERASE / ALBUMIN / ALKALINE PHOSPHATASE / ASPARTATE AMINOTRANSFERASE / BLOOD UREA NITROGEN / CARBON DIOXIDE / CHLORIDE / CHOLESTEROL / CREATINE PHOSPHOKINASE / CREATININE / GLUCOSE / LACTATE DEHYDROGENASE / LIPASE / PHOSPHORUS / POTASSIUM / SODIUM / TOTAL BILIRUBIN / TOTAL PROTEIN / URIC ACID: tissue Plasma
[1] = 3 mg/kg, 120 h, dose level Low, time 5 day
[2] = 2000 mg/kg, 72 h, dose level High, time 3 day
[3] = 2000 mg/kg, 120 h, dose level High, time 5 day

COc1cc2nc(N3CCN(C(=O)c4ccco4)CC3)nc(N)c2cc1OC [PRAZOSIN]
ABSOLUTE BASOPHIL [1]: 0 CELLS/uL
ABSOLUTE EOSINOPHIL [1]: 228.67 CELLS/uL
ABSOLUTE LYMPHOCYTE [1]: 11545.33 CELLS/uL
ABSOLUTE MONOCYTE [1]: 136 CELLS/uL
ABSOLUTE SEGMENTED NEUTROPHIL [1]: 1690 CELLS/uL
BASOPHIL [1]: 0%
EOSINOPHIL [1]: 1.67%
ERYTHROCYTE COUNT [1]: 5.54 x10E6/uL
HEMATOCRIT [1]: 34.63%
HEMOGLOBIN [1]: 13.5 G/DL
LEUKOCYTE COUNT [1]: 13.6 x10E3/uL
LYMPHOCYTE [1]: 85.33%
MEAN CORPUSCULAR HEMOGLOBIN [1]: 24.47 pg
MEAN CORPUSCULAR HEMOGLOBIN CONCENTRATION [1]: 39.03 G/DL
MONOCYTE [1]: 1%
NEUTROPHIL [1]: 12%
NUCLEATED RED BLOOD CELLS [1]: 0 /100WBC
PLATELET COUNT [1]: 1245 x10E3/uL
ALANINE AMINOTRANSFERASE [1]: 57.33 u/L
ALBUMIN [1]: 4.23 G/DL
ALKALINE PHOSPHATASE [1]: 336.33 u/L
ASPARTATE AMINOTRANSFERASE [1]: 106.67 u/L
BLOOD UREA NITROGEN [1]: 16.67 mg/dL
CARBON DIOXIDE [1]: 21.67 mmol/L
CHLORIDE [1]: 104.33 MEQ/L
CHOLESTEROL [1]: 73 mg/dL
CREATINE PHOSPHOKINASE [1]: 877.67 u/L
CREATININE [1]: 0.19 mg/dL
GLUCOSE [1]: 131.67 mg/dL
LACTATE DEHYDROGENASE [1]: 643.67 u/L
LIPASE [1]: 9.67 u/L
PHOSPHORUS [1]: 11.7 mg/dL
POTASSIUM [1]: 6.1 MEQ/L
SODIUM [1]: 144.23 MEQ/L
TOTAL BILIRUBIN [1]: 0.23 mg/dL
TOTAL PROTEIN [1]: 6.13 G/DL
URIC ACID [1]: 1.5 mg/dL
ABSOLUTE BASOPHIL [2]: 0 CELLS/uL
ABSOLUTE EOSINOPHIL [2]: 93.33 CELLS/uL
ABSOLUTE LYMPHOCYTE [2]: 7483.33 CELLS/uL
ABSOLUTE MONOCYTE [2]: 100 CELLS/uL
ABSOLUTE SEGMENTED NEUTROPHIL [2]: 856.67 CELLS/uL
BASOPHIL [2]: 0%
EOSINOPHIL [2]: 1%
ERYTHROCYTE COUNT [2]: 5.18 x10E6/uL
HEMATOCRIT [2]: 33.2%
HEMOGLOBIN [2]: 13 G/DL
LEUKOCYTE COUNT [2]: 8.53 x10E3/uL
LYMPHOCYTE [2]: 87.33%
MEAN CORPUSCULAR HEMOGLOBIN [2]: 25.1 pg
MEAN CORPUSCULAR HEMOGLOBIN CONCENTRATION [2]: 39.17 G/DL
MONOCYTE [2]: 1.33%
NEUTROPHIL [2]: 10.33%
NUCLEATED RED BLOOD CELLS [2]: 0 /100WBC
PLATELET COUNT [2]: 1248.33 x10E3/uL
ALANINE AMINOTRANSFERASE [2]: 55.33 u/L
ALBUMIN [2]: 3.8 G/DL
ALKALINE PHOSPHATASE [2]: 290.33 u/L
ASPARTATE AMINOTRANSFERASE [2]: 131.67 u/L
BLOOD UREA NITROGEN [2]: 18.33 mg/dL
CARBON DIOXIDE [2]: 24 mmol/L
CHLORIDE [2]: 105 MEQ/L
CHOLESTEROL [2]: 68.33 mg/dL
CREATINE PHOSPHOKINASE [2]: 1224.33 u/L
CREATININE [2]: 0.19 mg/dL
GLUCOSE [2]: 153 mg/dL
LACTATE DEHYDROGENASE [2]: 177.67 u/L
LIPASE [2]: 9.67 u/L
PHOSPHORUS [2]: 10.87 mg/dL
POTASSIUM [2]: 5.14 MEQ/L
SODIUM [2]: 144.9 MEQ/L
TOTAL BILIRUBIN [2]: 0.17 mg/dL
TOTAL PROTEIN [2]: 5.37 G/DL
URIC ACID [2]: 1.17 mg/dL
ABSOLUTE BASOPHIL [3]: 0 CELLS/uL
ABSOLUTE EOSINOPHIL [3]: 0 CELLS/uL
ABSOLUTE LYMPHOCYTE [3]: 9169.67 CELLS/uL
ABSOLUTE MONOCYTE [3]: 0 CELLS/uL
ABSOLUTE SEGMENTED NEUTROPHIL [3]: 630.33 CELLS/uL
BASOPHIL [3]: 0%
EOSINOPHIL [3]: 0%
ERYTHROCYTE COUNT [3]: 5.58 x10E6/uL
HEMATOCRIT [3]: 34%
HEMOGLOBIN [3]: 13.3 G/DL
LEUKOCYTE COUNT [3]: 9.8 x10E3/uL
LYMPHOCYTE [3]: 93.33%
MEAN CORPUSCULAR HEMOGLOBIN [3]: 23.83 pg
MEAN CORPUSCULAR HEMOGLOBIN CONCENTRATION [3]: 39.13 G/DL
MONOCYTE [3]: 0%
NEUTROPHIL [3]: 6.67%
NUCLEATED RED BLOOD CELLS [3]: 0 /100WBC
PLATELET COUNT [3]: 1205.67 x10E3/uL
ALANINE AMINOTRANSFERASE [3]: 63.33 u/L
ALBUMIN [3]: 3.8 G/DL
ALKALINE PHOSPHATASE [3]: 286.33 u/L
ASPARTATE AMINOTRANSFERASE [3]: 139.33 u/L
BLOOD UREA NITROGEN [3]: 16 mg/dL
CARBON DIOXIDE [3]: 21.33 mmol/L
CHLORIDE [3]: 104.67 MEQ/L
CHOLESTEROL [3]: 64.67 mg/dL
CREATINE PHOSPHOKINASE [3]: 1202.67 u/L
CREATININE [3]: 0.19 mg/dL
GLUCOSE [3]: 152 mg/dL
LACTATE DEHYDROGENASE [3]: 204 u/L
LIPASE [3]: 9 u/L
PHOSPHORUS [3]: 10.4 mg/dL
POTASSIUM [3]: 5.65 MEQ/L
SODIUM [3]: 146.07 MEQ/L
TOTAL BILIRUBIN [3]: 0.2 mg/dL
TOTAL PROTEIN [3]: 5.3 G/DL
URIC ACID [3]: 0.73 mg/dL
